Reference: paper PMC9331678 (Molecules, 2022)

Legend:
[1] = 6 h benchtop (early preanalytical) stability in whole blood and in plasma; type: in vitro ADME, human; details: ambient temperature (25 °C), up to 6 h
Description: Six independent plasma samples were processed. The reference solutions were 140 µL acetonitrile-water 4:1 (v/v) mixtures spiked as described above. The mixtures and the reference solutions were subsequently diluted with 90 µL water. Internal standard-corrected matrix factors were calculated as the peak area ratios of the analytes and the internal standards in prepared plasma versus those in a neat solution. In the stability studies, the recoveries of IBR and DIB were calculated as the ratio of the concentrations measured after incubation and those measured at the beginning of the study.
The preanalytical stability of IBR and DIB was evaluated by adding 20 µL methanol solutions containing 500 ng/mL IBR and DIB to two 1.0 mL aliquots of blood freshly drawn into phlebotomy tubes containing K3-EDTA. Three samples, 3 mL each, were taken from three healthy volunteers (manuscript authors G.B.K., I.V. and Z.K.). One of the fractions was centrifuged at 3000 rpm and 10 °C for 10 min immediately after spiking the analytes, and plasma was separated. Both spiked whole blood and the separated plasma were kept at ambient temperature for 6 h. […] Fifty microliters was drawn from the supernatant of the whole blood sample as well as from the plasma, and was processed as described in Section 2.2.

[2] = cited from earlier work
[3] = test system: plasma albumin; details: cited from earlier work
[4] = cited from earlier work; remark: listed apart in the source
[5] = plasma kept at ambient temperature for 24 h; ref 24 (Huynh et al.); cited from earlier work

recovery at 9.8 ng/mL ([1]; human, plasma (separated from spiked K3-EDTA whole blood), plasma, all analyses): ≥ 85%
cases with recoveries lower than 85% (of fifteen analyses) ([1]; whole blood): two
SMILES: C=CC(=O)N1CCC[C@@H](n2nc(-c3ccc(Oc4ccccc4)cc3)c3c(N)ncnc32)C1 [Ibrutinib, 1-[(3R)-3-[4-Amino-3-(4-phenoxyphenyl)-1H-pyrazolo[3,4-d]pyrimidin-1-yl]-1-piperidinyl]-2-propen-1-one]
oral bioavailability [2]: low
affinity to plasma albumin [3]: > 95%
solubility in water [4]: poor
recoveries [5]: 46.7–72.9%
